From patent US10160726B2, “Quinolone derivatives as antibacterials” (priority 2014, dated 2018)
≈ marks a conversion by molar mass, not a printed value. Like-named read-outs stand apart in the source and are kept apart here.

Tests used:
Format in all cases: cell-based
[1] = tested on: E. coli ATCC 25922 (NB27001); assay: MIC, broth microdilution (CLSI); settings: Escherichia coli, ATCC25922; E. coli ATCC 25922; 35° C., 20 hours; read-out: Antibacterial activity (MIC) NB27001
[2] = tested on: P. aeruginosa NB52023 (efflux deficient K1542, ΔmexX ΔmexB); assay: microbe, parasite or virus in culture; settings: Pseudomonas aeruginosa, 20 h, read-out: Antibacterial activity (MIC) NB52023
[3] = tested on: S. aureus ATCC 29213 (NB01001); assay: MIC, broth microdilution (CLSI); settings: Staphylococcus aureus, ATCC29213; S. aureus ATCC 29213; 35° C., 20 hours; read-out: Antibacterial activity (MIC) NB01001
[4] = tested on: E. coli NB27177 (efflux deficient CGSC 11430, ΔtolC732::kan); assay: microbe, parasite or virus in culture; settings: Escherichia coli, 20 h, read-out: Antibacterial activity (MIC) NB27177
[5] = tested on: P. aeruginosa NB52019 (wild-type PAO1); assay: MIC, broth microdilution (CLSI); settings: Pseudomonas aeruginosa, read-out: Antibacterial activity (MIC) NB52019
[6] = tested on: S. aureus NB01006-AVR005 (gyrA S84L, grlA S80F, grlB E471K); assay: microbe, parasite or virus in culture; settings: Staphylococcus aureus, 20 h, read-out: Antibacterial activity (MIC) NB01006-AVR005
[7] = tested on: P. aeruginosa NB52023-CDK0006 (gyrA T83I, parC S87L); assay: microbe, parasite or virus in culture; settings: Pseudomonas aeruginosa, 20 h, read-out: Antibacterial activity (MIC) NB52023-CDK0006
[8] = P. aeruginosa wild-type PAO1, 35° C., 20 hours

SMILES	MIC [1]	MIC [2]	MIC [3]	MIC [4]	MIC ([5]; PAO1, 20 h)	MIC [6]	MIC [7]	MIC [5, 8]
COc1cc2cc(F)c(N3CC[C@@H]([C@H](C)N)C3)c(C)c2n(C2CC2)c1=O [Example 6, 7-((R)-3-((S)-1-aminoethyl)pyrrolidin-1-yl)-1-cyclopropyl-6-fluoro-3-methoxy-8-methylquinolin-2(1H)-one]	2 µg/mL (≈ 5.56 µM)	8 µg/mL (≈ 22.3 µM)	0.125 µg/mL (≈ 0.348 µM)	0.125 µg/mL (≈ 0.348 µM)	32 µg/mL (≈ 89 µM)	0.5 µg/mL (≈ 1.39 µM)	32 µg/mL (≈ 89 µM)	–
COc1cc2cc(F)c(-c3ccc(N)nc3)c(C)c2n(C2CC2)c1=O [Example 7, 7-(6-aminopyridin-3-yl)-1-cyclopropyl-6-fluoro-3-methoxy-8-methylquinolin-2(1H)-one]	32 µg/mL (≈ 94.3 µM)	> 32 µg/mL	2 µg/mL (≈ 5.89 µM)	0.25 µg/mL (≈ 0.737 µM)	> 32 µg/mL	4 µg/mL (≈ 11.8 µM)	> 32 µg/mL	–
Cc1c(N2CC[C@@H]([C@H](C)N)C2)c(F)cc2c(-c3cn[nH]c3)cc(=O)n(C3CC3)c12 [Example 18, 7-((R)-3-((S)-1-aminoethyl)pyrrolidin-1-yl)-1-cyclopropyl-6-fluoro-8-methyl-4-(1H-pyrazol-4-yl)quinolin-2(1H)-one]	32 µg/mL (≈ 80.9 µM)	8 µg/mL (≈ 20.2 µM)	0.5 µg/mL (≈ 1.26 µM)	0.125 µg/mL (≈ 0.316 µM)	32 µg/mL (≈ 80.9 µM)	0.25 µg/mL (≈ 0.632 µM)	16 µg/mL (≈ 40.5 µM)	–
Cc1c(N2CC[C@@H]([C@H](C)N)C2)c(F)cc2c(-c3ccccc3)cc(=O)n(C3CC3)c12 [Example 19, 7-((R)-3-((S)-1-aminoethyl)pyrrolidin-1-yl)-1-cyclopropyl-6-fluoro-8-methyl-4-phenylquinolin-2(1H)-one]	32 µg/mL (≈ 78.9 µM)	> 32 µg/mL	0.5 µg/mL (≈ 1.23 µM)	0.5 µg/mL (≈ 1.23 µM)	–	0.5 µg/mL (≈ 1.23 µM)	> 32 µg/mL	> 32 µg/mL
Cc1c(N2CC[C@@H]([C@H](C)N)C2)c(F)cc2c(-c3cc(F)c(O)c(F)c3)cc(=O)n(C3CC3)c12 [Example 20, 7-((R)-3-((S)-1-aminoethyl)pyrrolidin-1-yl)-1-cyclopropyl-4-(3,5-difluoro-4-hydroxyphenyl)-6-fluoro-8-methylquinolin-2(1H)-one]	32 µg/mL (≈ 69.9 µM)	32 µg/mL (≈ 69.9 µM)	0.5 µg/mL (≈ 1.09 µM)	0.125 µg/mL (≈ 0.273 µM)	> 32 µg/mL	0.25 µg/mL (≈ 0.546 µM)	16 µg/mL (≈ 35 µM)	–
CCOC(=O)/C=C/c1cc(=O)n(C2CC2)c2c(C)c(N3CC[C@@H]([C@H](C)N)C3)c(F)cc12 [Example 21, (E)-ethyl 3-(7-((R)-3-((S)-1-aminoethyl)pyrrolidin-1-yl)-1-cyclopropyl-6-fluoro-8-methyl-2-oxo-1,2-dihydroquinolin-4-yl)acrylate]	16 µg/mL (≈ 37.4 µM)	32 µg/mL (≈ 74.9 µM)	0.125 µg/mL (≈ 0.292 µM)	0.125 µg/mL (≈ 0.292 µM)	> 32 µg/mL	0.125 µg/mL (≈ 0.292 µM)	32 µg/mL (≈ 74.9 µM)	–
Cc1c(N2CC[C@@H]([C@H](C)N)C2)c(F)cc2c(/C=C/C(=O)O)cc(=O)n(C3CC3)c12 [Example 22, (E)-3-(7-((R)-3-((S)-1-aminoethyl)pyrrolidin-1-yl)-1-cyclopropyl-6-fluoro-8-methyl-2-oxo-1,2-dihydroquinolin-4-yl)acrylic acid]	32 µg/mL (≈ 80.1 µM)	> 32 µg/mL	8 µg/mL (≈ 20 µM)	8 µg/mL (≈ 20 µM)	> 32 µg/mL	8 µg/mL (≈ 20 µM)	> 32 µg/mL	–
CCc1cc(=O)n(C2CC2)c2c(C)c(N3CC[C@@H]([C@H](C)N)C3)c(F)cc12 [Example 24, 7-((R)-3-((S)-1-aminoethyl)pyrrolidin-1-yl)-1-cyclopropyl-4-ethyl-6-fluoro-8-methylquinolin-2(1H)-one]	8 µg/mL (≈ 22.4 µM)	> 32 µg/mL	0.06 µg/mL (≈ 0.168 µM)	0.06 µg/mL (≈ 0.168 µM)	> 32 µg/mL	0.06 µg/mL (≈ 0.168 µM)	> 32 µg/mL	–
COC(=O)C#Cc1cc(=O)n(C2CC2)c2c(C)c(N3CC[C@@H]([C@H](C)N)C3)c(F)cc12 [Example 26, Methyl 3-(7-((R)-3-((S)-1-aminoethyl)pyrrolidin-1-yl)-1-cyclopropyl-6-fluoro-8-methyl-2-oxo-1,2-dihydroquinolin-4-yl)propiolate]	32 µg/mL (≈ 77.8 µM)	16 µg/mL (≈ 38.9 µM)	1 µg/mL (≈ 2.43 µM)	1 µg/mL (≈ 2.43 µM)	> 32 µg/mL	0.25 µg/mL (≈ 0.608 µM)	32 µg/mL (≈ 77.8 µM)	–
Cc1c(C#N)c2cc(F)c(N3CC[C@@H]([C@H](C)N)C3)c(C)c2n(C2CC2)c1=O [Example 28, 7-((R)-3-((S)-1-aminoethyl)pyrrolidin-1-yl)-1-cyclopropyl-6-fluoro-3,8-dimethyl-2-oxo-1,2-dihydroquinoline-4-carbonitrile]	2 µg/mL (≈ 5.43 µM)	2 µg/mL (≈ 5.43 µM)	< 0.03 µg/mL	< 0.03 µg/mL	16 µg/mL (≈ 43.4 µM)	< 0.03 µg/mL	0.5 µg/mL (≈ 1.36 µM)	–
Cc1c(N2CC[C@H](CN)C2)c(F)cc2c(C#N)cc(=O)n(C3CC3)c12 [Example 29, (R)-7-(3-(aminomethyl)pyrrolidin-1-yl)-1-cyclopropyl-6-fluoro-8-methyl-2-oxo-1,2-dihydroquinoline-4-carbonitrile]	1 µg/mL (≈ 2.94 µM)	2 µg/mL (≈ 5.88 µM)	0.125 µg/mL (≈ 0.367 µM)	0.03 µg/mL (≈ 0.0881 µM)	8 µg/mL (≈ 23.5 µM)	0.125 µg/mL (≈ 0.367 µM)	4 µg/mL (≈ 11.8 µM)	–
Cc1c(N2CC[C@@H](CN)C2)c(F)cc2c(C#N)cc(=O)n(C3CC3)c12 [Example 31, (S)-7-(3-(aminomethyl)pyrrolidin-1-yl)-1-cyclopropyl-6-fluoro-8-methyl-2-oxo-1,2-dihydroquinoline-4-carbonitrile]	2 µg/mL (≈ 5.88 µM)	2 µg/mL (≈ 5.88 µM)	0.06 µg/mL (≈ 0.176 µM)	< 0.03 µg/mL	8 µg/mL (≈ 23.5 µM)	0.06 µg/mL (≈ 0.176 µM)	4 µg/mL (≈ 11.8 µM)	–
Cc1c(N2CCNCC2)c(F)cc2c(C#N)cc(=O)n(C3CC3)c12 [Example 32, 1-cyclopropyl-6-fluoro-8-methyl-2-oxo-7-(piperazin-1-yl)-1,2-dihydroquinoline-4-carbonitrile]	4 µg/mL (≈ 12.3 µM)	16 µg/mL (≈ 49 µM)	4 µg/mL (≈ 12.3 µM)	0.125 µg/mL (≈ 0.383 µM)	–	2 µg/mL (≈ 6.13 µM)	32 µg/mL (≈ 98 µM)	32 µg/mL (≈ 98 µM)
Cc1c(N2CC[C@H](O)C2)c(F)c(F)c2c(CN3CCN(C)CC3)cc(=O)n(C3CC3)c12 [Example 90, (S)-1-cyclopropyl-5,6-difluoro-7-(3-hydroxypyrrolidin-1-yl)-8-methyl-4-((4-methylpiperazin-1-yl)methyl)quinolin-2(1H)-one trifluoro acetic acid]	16 µg/mL (≈ 37 µM)	32 µg/mL (≈ 74 µM)	0.125 µg/mL (≈ 0.289 µM)	–	> 32 µg/mL	0.125 µg/mL (≈ 0.289 µM)	32 µg/mL (≈ 74 µM)	–
Cc1c(N2CCC(F)(CN)C2)c(F)cc2cc(CO)c(=O)n(C3CC3)c12 (stereo not shown) [Example 96, 7-(3-(aminomethyl)-3-fluoropyrrolidin-1-yl)-1-cyclopropyl-6-fluoro-3-(hydroxymethyl)-8-methylquinolin-2(1H)-one]	2 µg/mL (≈ 5.5 µM)	8 µg/mL (≈ 22 µM)	0.5 µg/mL (≈ 1.38 µM)	–	32 µg/mL (≈ 88.1 µM)	1 µg/mL (≈ 2.75 µM)	8 µg/mL (≈ 22 µM)	–
COc1c(N2CCC(CN)C2)c(F)cc2ccc(=O)n(C3CC3)c12.O=C(O)C(F)(F)F (stereo not shown) [Example 110, 7-(3-(aminomethyl)pyrrolidin-1-yl)-1-cyclopropyl-6-fluoro-8-methoxyquinolin-2(1H)-one TFA salt]	4 µg/mL	16 µg/mL	0.25 µg/mL	–	–	0.125 µg/mL	32 µg/mL	> 32 µg/mL
